According to patent US7005298B1, “Micropropagation and production of phytopharmaceutical plants” (priority 1999, dated 2006):
Marks after values point to notes of the source that are not given here.

Experiments:
[1] = tested on: Echinacea purpurea petiole explants; experiment: Regeneration of Echinacea purpurea petiole explants on induction medium (BAP, TDZ, IAA); type: cell-based; settings: for Number of regenerants/petiole: after 33 days of culture
Experimental: The design of all experiments was a complete randomized block and treatments consisted of five replications. All the experiments were repeated at least twice and the data were analyzed using SAS Version 6.12 (SAS Inc., 1995). Significant differences between means were assessed by a Student-Neuman-Keulls means separation test at P≦0.05.
Germinating seedlings were cultured onto MS medium (Murashige & Skoog, 1962) with B5 vitamins (Gamborg et al 1968), 30 g·L^−1 sucrose and 3 g·L^−1 gelrite in Magenta boxes. Petiole explants, 2 cm in length were excised from 4 week old sterile Echinacea purpurea plants and cultured onto induction medium comprising MS media supplemented with thidiazuron (TDZ) (0.5, 1, 5 and 10 μmol·L^−1) or BAP (1, 2.5, 5, 7.5, 10, 12.5 and 15 μmol·L^−1). TDZ was added to the media at concentrations of 0.5 and 1.0 μmmol·L^−1 in combination with indole acetic acid (IAA, an auxin) at concentrations of 5 and 10 μmol·L^−1. Explants cultured on media containing TDZ and IAA were subcultured onto MS basal media after 23 days while those cultured on media containing higher concentrations of TDZ were subcultured onto MS basal media after 4 and 8 days. All treatments consisted of 10 plates per treatment and 6 explants per plate. Treatments were incubated in a growth cabinet with a 16 hour photoperiod under cool white light at 40–60 μmol·m^−2·s^−1. Regeneration was quantified after 25 and 33 days for all petiole cultures and roots after 33 and 42 days of culture. The resulting regenerants were excised from petioles and subcultured onto MS basal media in test tubes for germination after 32 days of culture.

[2] = tested on: St. John's wort plantlets; experiment: Lithium accumulation and growth of St. John's wort plantlets on lithium-supplemented liquid basal medium; type: in vivo, Hypericum perforatum
Experimental: St. John's wort seedlings were obtained from sterilized seeds germinated in a controlled environment. St. John's wort seeds were sterilized by immersing in a 70% ethanol solution for 5 s, followed by an immersion in a 30% solution of 5.4% sodium hypochlorite (Lilo Products, Hamilton, Ontario) in water with one drop of Tween 20 per 500 mL for 20 min, and a three times rinse in sterile distilled water. Sterile seeds were germinated and maintained on water agar (8 g·L^−1) for 16 days in darkness in a growth cabinet at 24° C. Individual seedlings were cultured in Magenta boxes on a medium containing MS medium (Murashige and Skoog, 1962), B5 vitamins (Gamborg et al 1968), 30 g·L^−1 sucrose and 3 g·L^−1 gellan gum (Gelrite, Schweitzerhall Inc., South Plainfield, N.J., USA). Seedling cultures were incubated in a growth cabinet with a 16 hour photoperiod under cool white light at 40–60 μmol·m^−2·s^−1. After 30 days, seedlings were excised from the Magenta boxes and subcultured into 125 mL flasks containing 25 mL of a basal medium containing MS medium (Murashige and Skoog, 1962), B5 vitamins (Gamborg et al 1968) and 30 g·L^−1 sucrose. […]
In a second series of experiments, the lithium accumulation of regenerated St. John's wort shoots was determined. […]
Samples were harvested from the cultures analysed for lithium with the same protocol as described above.

[3] = tested on: Echinacea plantlets; experiment: Zinc uptake and growth of Echinacea plantlets on zinc-supplemented liquid basal medium; type: in vivo, Echinacea purpurea
Experimental: Germinating seedlings were cultured onto MS medium (Murashige & Skoog, 1962) with B5 vitamins (Gamborg et al 1968), 30 g·L^−1 sucrose and 3 g·L^−1 gelrite in Magenta boxes and incubated in a controlled environment chamber for 30 days with a 16 hour photoperiod under cool white light at 40–60 μmol·m^−2·s^−1. Mature seedlings were subcultured into 125 mL flasks containing 25 mL of basal medium supplemented with zinc at 0, 50, 100, 150 or 200 mg·L^−1 and incubated in the same chamber for 30 days (liquid baslal medium, Table 1).
In experiments designed to determine the zinc uptake in micropropagated Echinacea plantlets, petiole explants, 2 cm in length were excised from the 4 week old sterile Echinacea plants and subcultured onto induction medium comprising MS media supplemented with thidiazuron (TDZ) (0.5, 1, 5 and 10 μmol·L^−1) or BAP (1, 2.5, 5, 7.5, 10, 12.5 and 15 μmol·L^−1) alone or in combination with indoleacetic acid (IAA) at concentrations of 5 and 10 μmol·L^−1. […] Regeneration was quantified after 25 and 33 days for all petiole cultures and roots after 33 and 42 days of culture. […]
Plants were harvested on day 45 after treatments were initiated. […] Fresh weight of individual plantlets was determined prior to air drying at 90° C. for 48 hours. […] The zinc content of the samples was determined using an AA55 Varian Atomic Absorption Spectrophotometer or by ICP Analysis. […]

[4] = tested on: livestock growth; settings: animal feeds supplemented with 3000 ppm inorganic zinc; cited from earlier work
[5] = tested on: uptake of serotonin, dopamine, noradrenaline, GABA and L-glutamate; settings: animal cell cultures; cited from earlier work

c1ccc(CNc2ncnc3[nH]cnc23)cc1 [BAP, benzylaminopurine]
Number of regenerants/petiole ([1]; BAP 1 μmol·L^−1): 5.4^ab
Number of regenerants/petiole ([1]; BAP 2.5 μmol·L^−1): 8.1^a
Number of regenerants/petiole ([1]; BAP 5 μmol·L^−1): 6.6^ab
Number of regenerants/petiole ([1]; BAP 7.5 μmol·L^−1): 5.2^ab
Number of regenerants/petiole ([1]; BAP 10 μmol·L^−1): 3.9^b
Number of regenerants/petiole ([1]; BAP 12.5 μmol·L^−1): 5.2^ab
Number of regenerants/petiole ([1]; BAP 15 μmol·L^−1): 5.5^ab
de novo shoot formation ([1]; BAP as the sole growth regulating compound, all concentrations): induced de nova shoot formation at all concentrations
callus formation and elongation of the petioles ([1]; culture medium supplemented with BAP): induce callus formation and elongation of the petioles

[Li] [lithium]
appearance of plantlets ([2]; all treatment levels (0–200 mg·L^−1 lithium)): appeared healthy
growth rate ([2]; lithium supplementation of the culture medium, all treatment levels): unaffected

[Zn] [zinc]
appearance of plants ([3]; 50, 100 and 150 mg·L^−1 zinc treatment groups): appeared normal and healthy
plantlet growth ([3]; higher concentrations of zinc in the medium (above 150 mg·L^−1)): some inhibition of growth was observed
muscle and protein accretion and rate of growth [4]: more rapid muscle and protein accretion and an overall acceleration in the rate of growth

hyperforin
uptake of serotonin, dopamine, noradrenaline, GABA and L-glutamate [5]: inhibition of uptake
